From patent US20140051679A1, “KINASE INHIBITORS AND METHOD OF TREATING CANCER WITH SAME” (UNIVERISTY HEALTH NETWORKS, priority 2011, published 2014) come the findings set out here.

By IC50 is commonly meant the midpoint of a concentration-inhibition curve. By GI50 is commonly meant the concentration at which growth is held to half of that of the control.

Experiment [1] has as its target T1, human TTK (Homo sapiens, UniProt P33981).
T1 construct: amino terminal GST fusion of full length human TTK; purchased Invitrogen
T1 sequence (P33981 1-857): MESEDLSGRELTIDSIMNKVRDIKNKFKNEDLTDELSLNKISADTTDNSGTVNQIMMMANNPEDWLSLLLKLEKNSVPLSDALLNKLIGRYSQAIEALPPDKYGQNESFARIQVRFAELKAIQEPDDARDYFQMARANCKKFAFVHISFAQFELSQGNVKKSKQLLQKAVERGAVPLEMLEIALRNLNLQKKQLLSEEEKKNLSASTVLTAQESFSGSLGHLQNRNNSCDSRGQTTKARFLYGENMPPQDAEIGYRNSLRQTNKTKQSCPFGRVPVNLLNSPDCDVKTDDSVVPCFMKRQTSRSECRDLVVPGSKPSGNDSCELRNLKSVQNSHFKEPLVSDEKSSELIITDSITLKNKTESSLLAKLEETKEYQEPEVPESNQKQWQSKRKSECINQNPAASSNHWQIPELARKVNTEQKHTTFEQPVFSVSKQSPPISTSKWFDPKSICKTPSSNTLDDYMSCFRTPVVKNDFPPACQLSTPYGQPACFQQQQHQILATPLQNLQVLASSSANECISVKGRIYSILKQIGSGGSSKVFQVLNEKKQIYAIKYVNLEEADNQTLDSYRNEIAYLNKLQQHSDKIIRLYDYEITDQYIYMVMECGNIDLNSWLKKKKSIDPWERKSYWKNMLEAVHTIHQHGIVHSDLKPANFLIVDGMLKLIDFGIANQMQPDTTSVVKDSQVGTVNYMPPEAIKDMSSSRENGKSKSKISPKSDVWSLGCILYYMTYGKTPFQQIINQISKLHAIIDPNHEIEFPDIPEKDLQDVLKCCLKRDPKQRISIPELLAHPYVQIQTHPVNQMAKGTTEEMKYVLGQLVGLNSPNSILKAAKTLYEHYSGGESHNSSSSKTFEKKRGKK
The experiment can be described thus: TTK inhibition assay (indirect ELISA). Format: biochemical. The following applies: GST-TTK 0.68 nM, 16 μM ATP; read-out: IC50 Ranges TTK.

Experiment [2] has as its target T2, human PLK4 (Homo sapiens, UniProt O00444).
T2 construct: amino terminal GST fusion of residues 1-391 of human PLK4; made in house; host or cells: E. coli
T2 sequence (O00444 1-391): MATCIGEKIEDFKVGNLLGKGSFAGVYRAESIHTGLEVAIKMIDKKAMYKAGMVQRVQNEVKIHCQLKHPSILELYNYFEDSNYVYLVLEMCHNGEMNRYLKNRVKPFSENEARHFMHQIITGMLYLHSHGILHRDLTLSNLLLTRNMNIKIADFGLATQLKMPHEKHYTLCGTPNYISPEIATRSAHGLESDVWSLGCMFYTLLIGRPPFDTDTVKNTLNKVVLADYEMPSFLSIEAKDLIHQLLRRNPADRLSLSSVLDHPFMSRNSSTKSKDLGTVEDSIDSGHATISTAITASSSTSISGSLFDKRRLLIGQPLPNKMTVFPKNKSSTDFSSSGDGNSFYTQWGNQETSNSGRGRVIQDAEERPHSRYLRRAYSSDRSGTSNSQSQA
The experiment can be described thus: PLK4 inhibition assay (indirect ELISA). The conditions noted are these: GST-PLK4 4 nM, 15 μM ATP; read-out: IC50 Ranges PLK4. Format: biochemical. Summed up: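 Compounds were tested either at a single 10 μM dose or across 10-point titrations (typically 0.5 to 0.001 μM), preincubated 15 min with 4 nM GST-PLK4 (human 1-391, dephosphorylated) before 15 μM ATP was added. MBP substrate phosphorylation over 30 min, pH 7.5 HEPES/MgCl2 buffer, read by HRP/TMB ELISA (450 nm). % inhibition vs. high-activity control; IC50 by logistic fit.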
For orientation: ELISA stands for enzyme-linked immunosorbent assay.

Experiment [3] addresses T3, Aurora B (Homo sapiens, UniProt Q96GD4).
T3 construct: purchased Invitrogen PV3970
The experiment in a line: Aurora B inhibition assay (Z-Lyte). The conditions noted are these: 28 nM Aurora B, 128 μM ATP; read-out: IC50 Ranges Aurora B. Format: biochemical. Here is the method: Aurora B inhibition was determined using the Z-Lyte assay kit from Invitrogen. The assay was performed using the recommended manufacturer's instructions with 128 μM ATP and 28 nM Aurora B (Invitrogen cat #PV3970). The % inhibition values were determined according to the manufacturer's directions and IC50 values were obtained using a non-linear 4 point logistic curve fit (XLfit4, IDBS)

Experiment [4] has as its system MDA-MB-231 breast cancer cells. The experiment can be described thus: Cell growth inhibition, Sulforhodamine B assay, MDA-MB-231. The experiment is classed as cell-based. The conditions noted are these: Homo sapiens, 120 h, 5 days culture, SRB assay, read-out: Cell Line GI50 Range MDA-MB-231. (Sulforhodamine B stains cellular protein and so reports cell mass.)
In experiment [5] the test system is MDA-MB-468 breast cancer cells. The experiment in a line: Cell growth inhibition, Sulforhodamine B assay, MDA-MB-468. The experiment is classed as cell-based. The conditions noted are these: Homo sapiens, 120 h, 5 days culture, SRB assay, read-out: Cell Line GI50 Range MDA-MB-468.
Experiment [6] relates to HCT116 colon cancer cells. The experiment can be described thus: Cell growth inhibition, Sulforhodamine B assay, HCT116. The experiment is classed as cell-based. The following applies: Homo sapiens, HCT-116, 120 h, 5 days culture, SRB assay, read-out: Cell Line GI50 Range HCT116.
Experiment [7] has as its system HT29 colon cancer cells. The experiment in a line: Cell growth inhibition, Sulforhodamine B assay, HT29. Format: cell-based. The conditions noted are these: Homo sapiens, HT-29, 120 h, 5 days culture, SRB assay, read-out: Cell Line GI50 Range HT29.
Description: (§1) Breast cancer cells (MDA-MB-231, MDA-MB-468), colon cancer cells (HCT116, HT29) and ovarian cancer cells (PA-1, OVCAR-3) were seeded (1000 to 4000 in 80 μl per well depending on the cell growth rate) into 96 well plates 24 hours before compound overlay. Compounds were prepared as 10 mM stock solutions in 100% DMSO which were diluted with DMEM (Dulbecco's Modified Eagle's Medium) cell growth Medium (Invitrogen, Burlington, ON, Canada) containing 10% FBS (Fetal Bovine Serum) to concentrations ranging from 50 nM to 250 μM. Aliquots (20 μl) from each concentration were overlaid to 80 μl of the pre-seeded cells in the 96 well plates to make final concentrations of 10 nM to 50 μM. The cells were cultured for 5 days before the Sulforhodamine B assay (SRB) was performed to determine the compound's cell growth inhibition activity.
(§2) Sulforhodamine B (purchased from Sigma, Oakville, ON, Canada) is a water-soluble dye that binds to the basic amino acids of the cellular proteins. Thus, colorimetric measurement of the bound dye provides an estimate of the total protein mass that is related to the cell number. the cells are fixed in situ by gently aspirating off the culture media and adding 50 μl ice cold 10% Trichloroacetic Acid (TCA) per well and incubate at 4° C. for 30-60 min, The plates are washed with water five times and allowed to air dry for 5 min. Addition of 50 μl 0.4% (w/v) SRB solution in 1% (v/v) acetic acid to each well and incubatation for 30 min at RT completes the staining reaction. Following staining, plates are washed four times with 1% acetic acid to remove unbound dye and then allowed to air dry for 5 min. The stain is solubilized with 100 μl of 10 mM Tris pH 10.5 per well. Absorbance is read at 570 nm.
(§3) The percentage (%) of relative growth inhibition was calculated by comparing to DMSO treated only cells (100%). […] The GI50 was calculated using GraphPad PRISM software (GraphPad Software, Inc., San Diego, Calif., USA).
Experiment [8] has as its system PA-1 ovarian cancer cells. The experiment in a line: Cell growth inhibition, Sulforhodamine B assay, PA-1. Format: cell-based. The following applies: 120 h, 5 days culture, SRB assay, read-out: Cell Line GI50 Range PA-1.
Description: as §1, §2, §3
In experiment [9] the test system is OVCAR-3 ovarian cancer cells. The experiment can be described thus: Cell growth inhibition, Sulforhodamine B assay, OVCAR-3. Format: cell-based. The conditions noted are these: Homo sapiens, 120 h, 5 days culture, SRB assay, read-out: Cell Line GI50 Range OVCAR-3.
Experiment [10] deals with Colon tumor initiating cells (TICs), 12 colon. The experiment in a line: Colon tumor-initiating cell growth inhibition (Alamar Blue). The experiment is classed as cell-based. The following applies: 216 h, 9 days, read-out: GI50 range 12 colon. (In general: Resazurin is reduced to fluorescent resorufin, in cell work by metabolically active cells.)
Excerpt: Materials and Methods: Non-tissue or tissure cultured treated T-75 flask and 96-well plates were purchased from VWR. Vitamin B-27 supplement, MEM NEAA (minimum essential medium non essential amino acids), sodium pyruvate, L-glutamine, N2 supplement, penicillin-streptomycin and fungizone/amphotericin B were obtained from Invitrogen. Lipid mixture, heparin and EGF were purchased from Sigma; bFGF from BD Biosciences. Colon tumor initiating cells (TICs) were routinely maintained using non-tissue cultured treated T-75 flasks in DMEM:F12 medium containing 0.2XB-27 supplement, 4 ug/ml heparin, 1XMEM NEAA, 1× sodium pyruvate, 1 mM glutamine, 10 pg/ul bFGF, 20 pg/ul EGF, 1×N2 supplement, lipid mixture, penicillin-streptomycin and fungizone/amphotericin B. Ovarian TICs were routinely maintained using tissue cultured treated T-75 flasks in DMEM:F12 medium containing 1XB-27 supplement, 4 ug/ml heparin, 20 pg/ul bFGF, 20 pg/ul EGF and penicillin-streptomycin.
Compounds described herein were dissolved in DMSO and further diluted in cell culture medium for GI50 determination. Colon TICs were trypsinized and seeded into non-tissue cultured treated 96-well plates with 4,000 cells/well. After 24 h, compound was added into the cell culture at different concentrations, and the final concentration of DMSO was adjusted to 0.1%. Cells were then cultured at 37° C. for 9 days. Ovarian TICs were trypsinized and seeded into tissue cultured treated 96-well plates with 1,000 cells/well. After 24 h, compound was added into the cell culture at different concentrations, and the final concentration of DMSO was adjusted to 0.1%. Cells were then cultured at 37° C. for 6 days. Cell viability was assessed by Alamar Blue assay: 10 ul of Alamar Blue was added into each well. After 4 hours incubation at 37° C., fluorescence was recorded at excitation 544 and emission 590. GI50 (Growth inhibition) was calculated using GraphPad Prism 4.0 software.
Experiment [11] deals with Ovarian TICs, 2393A ovarian. The experiment can be described thus: Ovarian tumor-initiating cell growth inhibition (Alamar Blue). The conditions noted are these: 144 h, 6 days, read-out: GI50 range 2393A ovarian. The experiment is classed as cell-based.

The structures appear in SMILES notation.

T3 sequence (Q96GD4 whole entry): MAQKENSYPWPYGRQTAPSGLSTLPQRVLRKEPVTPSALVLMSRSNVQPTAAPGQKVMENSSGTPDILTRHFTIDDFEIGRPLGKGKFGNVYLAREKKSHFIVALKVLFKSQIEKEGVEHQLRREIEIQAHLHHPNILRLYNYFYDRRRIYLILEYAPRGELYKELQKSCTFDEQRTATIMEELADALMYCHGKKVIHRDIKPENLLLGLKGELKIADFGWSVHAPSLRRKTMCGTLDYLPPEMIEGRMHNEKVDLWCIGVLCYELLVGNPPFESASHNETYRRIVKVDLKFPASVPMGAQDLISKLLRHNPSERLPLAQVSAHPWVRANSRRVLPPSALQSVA

`CN1CCC(Oc2ccc(-c3n[nH]c4ccc(NC(=O)C(c5cccs5)N5CCCC5)cc34)cc2)CC1` (centres unmarked) [Example A91, N-(3-(4-((1-methylpiperidin-4-yl)oxy)phenyl)-1H-indazol-5-yl)-2-(pyrrolidin-1-yl)-2-(thiophen-2-yl)acetamide]: the IC50 in experiment [1], in experiment [2] and in experiment [3] was at most 5 µM each time. The GI50 in [4], in [5], in experiment [6], in [7], in experiment [8] and in [9] was at most 5 µM each time. For the same molecule, the GI50 in experiment [10] and in experiment [11] was at most 5 µM each time.
On to `COCCN1CCC(Oc2ccc(-c3n[nH]c4ccc(C(=O)NC(c5ccccc5)C5CC5)cc34)cc2)CC1` (centres unmarked) [Example A98, N-(cyclopropyl(phenyl)methyl)-3-(4-((1-(2-methoxyethyl)piperidin-4-yl)oxy)phenyl)-1H-indazole-5-carboxamide], for which the IC50 in experiment [1], in [2] and in [3] was at most 5 µM each time. The GI50 in [4], in [5], in experiment [6], in experiment [7], in [8] and in [9] was at most 5 µM each time. The GI50 in [10] and in experiment [11] was at most 5 µM throughout.
For the molecule `CN1CCC(Oc2ccc(-c3n[nH]c4ccc(C(=O)NC(c5ccsc5)C5CCCC5)cc34)cc2)CC1` (centres unmarked) [Example A110, N-(cyclopentyl(thiophen-3-yl)methyl)-3-(4-((1-methylpiperidin-4-yl)oxy)phenyl)-1H-indazol-5-carboxamide], the IC50 in experiment [1], in experiment [2] and in experiment [3] was at most 5 µM each time. For the same molecule, the GI50 in experiment [4], in experiment [5], in [6], in experiment [7], in experiment [8] and in experiment [9] was at most 5 µM throughout. Besides, the GI50 in experiment [10] and in experiment [11] was at most 5 µM each time.
Take `CC[C@@H](NC(=O)c1ccc2[nH]nc(-c3ccc(OC4CCN(CCOC)CC4)cc3)c2c1)c1ccccc1Cl` [Example A128, (R)—N-(1-(2-chlorophenyl)propyl)-3-(4-((1-(2-methoxyethyl)piperidin-4-yl)oxy)phenyl)-1H-indazole-5-carboxamide]: the IC50 in experiment [1], in [2] and in experiment [3] was at most 5 µM each time. The GI50 in experiment [4], in [5], in experiment [6], in experiment [7], in experiment [8] and in experiment [9] was at most 5 µM each time. Further, the GI50 in experiment [10] and in experiment [11] was at most 5 µM throughout.
For the molecule `Cc1ccccc1C(NC(=O)c1ccc2[nH]nc(-c3ccc(OC4CCN(C)CC4)cc3)c2c1)C1CC1` (centres unmarked) [Example A132, N-(cyclopropyl(o-tolyl)methyl)-3-(4-((1-methylpiperidin-4-yl)oxy)phenyl)-1H-indazole-5-carboxamide], the IC50 in experiment [1], in experiment [2] and in experiment [3] was at most 5 µM throughout. The GI50 in [4], in [5], in experiment [6], in experiment [7], in experiment [8] and in experiment [9] was at most 5 µM throughout. The GI50 in experiment [10] and in [11] was at most 5 µM throughout.
As to `CN1CCC(Oc2ccc(-c3n[nH]c4ccc(C(=O)NC(c5ccccc5)C5CCCCC5)cc34)cc2)CC1` (centres unmarked) [Example A170, N-(cyclohexyl(phenyl)methyl)-3-(4-((1-methylpiperidin-4-yl)oxy)phenyl)-1H-indazole-5-carboxamide], the IC50 in [1] and in [2] was at most 5 µM throughout. Further, the GI50 in [4], in experiment [5], in [6], in experiment [7], in [8] and in experiment [9] was at most 5 µM throughout. Moreover, the GI50 in experiment [10] and in [11] was at most 5 µM throughout.
As for `COC[C@@H](NC(=O)c1ccc2[nH]nc(-c3ccc(OC4CCN(C)CC4)cc3)c2c1)c1ccccc1` [Example A173, (S)—N-(2-methoxy-1-phenylethyl)-3-(4-((1-methylpiperidin-4-yl)oxy)phenyl)-1H-indazole-5-carboxamide], the half-maximal inhibitory concentration (IC50) in experiment [1] and in experiment [2] was at most 5 µM each time. The GI50 was at most 5 µM in experiment [4]; at most 5 µM in experiment [5]; at most 5 µM in experiment [6]; at most 5 µM in experiment [7]; at most 5 µM in [8]; 5 to 20 µM in [9]. The GI50 in [10] and in experiment [11] was at most 5 µM in each case.
For `CN1CCC(Oc2ccc(-c3n[nH]c4ccc(NC(=O)C(c5ccsc5)N5CCC5)cc34)cc2)CC1` (centres unmarked) [Example A191, 2-(azetidin-1-yl)-N-(3-(4-((1-methylpiperidin-4-yl)oxy)phenyl)-1H-indazol-5-yl)-2-(thiophen-3-yl)acetamide], the IC50 in experiment [1], in experiment [2] and in experiment [3] was at most 5 µM each time. For the same molecule, the GI50 in experiment [4], in [5], in experiment [6], in experiment [8], in [9] and in [10] was at most 5 µM in each case. In addition, the GI50 in [11] is at most 5 µM.
On to `CC[C@H](NC(=O)c1ccc2[nH]nc(-c3ccc(OC4CCN(C5COC5)CC4)cc3)c2c1)c1ccccc1Cl` [Example A193, (S)—N-(1-(2-chlorophenyl)propyl)-3-(4-((1-(oxetan-3-yl)piperidin-4-yl)oxy)phenyl)-1H-indazole-5-carboxamide], for which the IC50 in [1], in experiment [2] and in experiment [3] was at most 5 µM each time. The GI50 in experiment [4], in experiment [5], in experiment [6], in experiment [8], in experiment [9] and in [10] was at most 5 µM each time. For the same molecule, the GI50 in experiment [11] is at most 5 µM.
